ChEMBL document CHEMBL1140536, “Versatile templates for the development of novel kinase inhibitors: Discovery of novel CDK inhibitors” (Bioorg Med Chem Lett, 2007)

Tested on: not listed separately
Assay: Inhibition of recombinant cyclin A/CDK2 expressed in Sf9 cells
Design: species or system Homo sapiens
Details: not given

SMILES | IC50 [nM]
Fc1ccccc1-c1cn2ccnc2c(NCc2ccncc2)n1 | 800
Brc1cnn2c(NCc3ccncc3)cc(-c3ccccc3)cc12 | 4500
Brc1cnc2c(NCc3ccncc3)cc(-c3ccccc3)cn12 | 700
Brc1cnc2c(NCc3ccncc3)nc(-c3ccccc3)cn12 | 440

Now from value to molecule:

IC50 [nM] | SMILES
500 | Clc1cccc(-c2cc(NCc3ccncc3)n3nccc3n2)c1Cl
500 | c1ccc(-c2cc(NCc3ccncc3)n3nccc3n2)cc1

Tested on: A2780
Assay: Growth inhibition of A2780 cells after 24 hrs by thymidine incorporation assay
Format: functional, cell-based
Details: Homo sapiens, A2780, 24 h

SMILES | IC50 [nM]
Brc1cnc2c(NCc3ccncc3)nc(-c3ccccc3)cn12 | 2000
